Patent EP1561465A2, “Methods of use of fluoroquinolone compounds against bacteria” (LG Life Sciences, Ltd., priority 1999, dated 2001)
≈ marks a conversion by molar mass, not a printed value. Where two headings read alike, the source gives them in different places.

How the values were obtained:
Format in all cases: cell-based
Enterococcus gallinarum = experiment: MIC by NCCLS broth microdilution, 1100 Japanese clinical isolates 1997-1998; details: Enterococcus gallinarum, GALLINARUM, Enterococcus gallinarum (vanC1), read-out: MIC
Streptococcus pneumoniae [1] = experiment: as above; details: for MIC50 / MIC90 / MIC: Streptococcus pneumoniae; for MIC50: read-out: MIC50; for MIC90: read-out: MIC90; for MIC: Streptococcus pneumoniae quinolone resistant
Streptococcus pneumoniae [2] = experiment: MIC by two-fold serial agar dilution, Sensitivity Disk agar-N (Kitasato isolates); details: for MIC90: read-out: MIC90; for MIC: read-out: MIC Range
Shigella spp. = experiment: MIC by NCCLS broth microdilution, 1100 Japanese clinical isolates 1997-1998; details: Shigella spp. (n=34)
[3] = system: Staphylococcus epidermidis; experiment: as above; details: for MIC50 / MIC90: Staphylococcus epidermidis
Streptococcus pyogenes = experiment: MIC by NCCLS reference broth microdilution, 450 respiratory tract pathogens; details: Streptococcus pyogenes
Haemophilus influenzae = experiment: as above; details: Haemophilus influenzae; for MIC90: read-out: MIC90
Enterobacter aerogenes = experiment: MIC by NCCLS broth microdilution, 1100 Japanese clinical isolates 1997-1998; details: Enterobacter aerogenes (n=35)
Moraxella catarrhalis = experiment: MIC by NCCLS reference broth microdilution, 450 respiratory tract pathogens
[4] = Streptococcus pneumoniae amoxicillin resistant (n=40)
[5] = Streptococcus pneumoniae amoxicillin susceptible (n=35)
[6] = Streptococcus pneumoniae erythromycin resistant (n=34)
[7] = Streptococcus pneumoniae erythromycin susceptible (n=11)
[8] = Staphylococcus epidermidis oxacillin resistant (n=43)
[9] = Staphylococcus epidermidis oxacillin susceptible (n=35)
[10] = Streptococcus pyogenes (n = 100)
[11] = erythromycin resistant C phenotype [MLSB] (n = 20)
[12] = erythromycin resistant I phenotype [MLSB] (n = 20)
[13] = erythromycin resistant M phenotype (n = 20)
[14] = Haemophilus influenzae (n = 100)

SMILES: C[C@@H]1CN(c2c(F)c(N)c3c(=O)c(C(=O)O)cn(C4CC4)c3c2F)C[C@H](C)N1 [Sparfloxacin, sparfloxacin]
- MIC (Enterococcus gallinarum; strain TMS1): 0.25 µg/mL (≈ 0.637 µM)
- MIC (Enterococcus gallinarum; strain TMS2): 0.5 µg/mL (≈ 1.27 µM)
- MIC (Enterococcus gallinarum; strain TMS3): 0.5 µg/mL (≈ 1.27 µM)
- MIC (Enterococcus gallinarum; strain TMS4): 0.25 µg/mL (≈ 0.637 µM)
- MIC Range (Streptococcus pneumoniae [1]; [4]): 0.125 to 4 µg/mL
- MIC Range (Streptococcus pneumoniae [1]; [5]): 0.032 to 4 µg/mL
- MIC Range (Streptococcus pneumoniae [1]; [6]): 0.032 to 4 µg/mL
- MIC Range (Streptococcus pneumoniae [1]; [7]): 0.125 to 0.25 µg/mL
- MIC50 (Streptococcus pneumoniae [1]; [4]): 0.25 µg/mL (≈ 0.637 µM)
- MIC90 (Streptococcus pneumoniae [1]; [4]): 0.25 µg/mL (≈ 0.637 µM)
- MIC50 (Streptococcus pneumoniae [1]; [5]): 0.25 µg/mL (≈ 0.637 µM)
- MIC90 (Streptococcus pneumoniae [1]; [5]): 0.5 µg/mL (≈ 1.27 µM)
- MIC50 (Streptococcus pneumoniae [1]; [6]): 0.25 µg/mL (≈ 0.637 µM)
- MIC90 (Streptococcus pneumoniae [1]; [6]): 0.25 µg/mL (≈ 0.637 µM)
- MIC50 (Streptococcus pneumoniae [1]; [7]): 0.25 µg/mL (≈ 0.637 µM)
- MIC90 (Streptococcus pneumoniae [1]; [7]): 0.25 µg/mL (≈ 0.637 µM)
- MIC (Streptococcus pneumoniae [1]; strain TMS1): 0.5 µg/mL (≈ 1.27 µM)
- MIC (Streptococcus pneumoniae [1]; strain TMS2): 8 µg/mL (≈ 20.4 µM)
- MIC50 (Streptococcus pneumoniae [2]; Ciprofloxacin-susceptible (94)): 0.125 µg/mL (≈ 0.319 µM)
- MIC Range (Streptococcus pneumoniae [2]; Minocycline-resistant (37)): 0.125 to 8 µg/mL
- MIC50 (Streptococcus pneumoniae [2]; Streptococcus pneumoniae): 0.125 µg/mL (≈ 0.319 µM)
- MIC90 (Streptococcus pneumoniae [2]; Streptococcus pneumoniae, 18 h, Ciprofloxacin-resistant (21), ciprofloxacin MIC ≥8 µg/ml): 8 µg/mL (≈ 20.4 µM)
- MIC (Streptococcus pneumoniae [2]; Streptococcus pneumoniae, 18 h, Ciprofloxacin-resistant (21)): 0.25 to 8 µg/mL (≈ 0.637 to 20.4 µM)
- MIC (Streptococcus pneumoniae [2]; Streptococcus pneumoniae, 18 h, Ciprofloxacin-susceptible (94)): 0.063 to 0.5 µg/mL (≈ 0.161 to 1.27 µM)
- MIC (Streptococcus pneumoniae [2]; Streptococcus pneumoniae, 18 h, Penicillin-resistant (19)): 0.063 to 1 µg/mL (≈ 0.161 to 2.55 µM)
- MIC (Streptococcus pneumoniae [2]; Streptococcus pneumoniae, 18 h): 0.125 to 8 µg/mL (≈ 0.319 to 20.4 µM)
- MIC50 (Streptococcus pneumoniae [2]; Streptococcus pneumoniae, Ciprofloxacin-resistant (21), read-out: MIC50): 4 µg/mL (≈ 10.2 µM)
- MIC90 (Streptococcus pneumoniae [2]; Streptococcus pneumoniae, Ciprofloxacin-susceptible (94)): 0.25 µg/mL (≈ 0.637 µM)
- MIC50 (Streptococcus pneumoniae [2]; Streptococcus pneumoniae, Erythromycin-resistant (37), read-out: MIC50): 0.25 µg/mL (≈ 0.637 µM)
- MIC90 (Streptococcus pneumoniae [2]; Streptococcus pneumoniae, Erythromycin-resistant (37)): 0.5 µg/mL (≈ 1.27 µM)
- MIC50 (Streptococcus pneumoniae [2]; Streptococcus pneumoniae, Minocycline-resistant (37), read-out: MIC50): 0.25 µg/mL (≈ 0.637 µM)
- MIC90 (Streptococcus pneumoniae [2]; Streptococcus pneumoniae, Minocycline-resistant (37)): 0.5 µg/mL (≈ 1.27 µM)
- MIC90 (Streptococcus pneumoniae [2]; Streptococcus pneumoniae, Penicillin-resistant (19)): 0.5 µg/mL (≈ 1.27 µM)
- MIC50 (Shigella spp.): ≤ 0.008 µg/mL
- MIC90 (Shigella spp.): 0.032 µg/mL (≈ 0.0815 µM)
- MIC Range (Shigella spp.): ≤0.008 to 0.032 µg/mL
- MIC Range [3, 8]: 0.032 to 16 µg/mL
- MIC Range [3, 9]: 0.032 to 8 µg/mL
- MIC50 [3, 8]: 4 µg/mL (≈ 10.2 µM)
- MIC90 [3, 8]: 8 µg/mL (≈ 20.4 µM)
- MIC50 [3, 9]: 0.063 µg/mL (≈ 0.161 µM)
- MIC90 [3, 9]: 4 µg/mL (≈ 10.2 µM)
- MIC (Streptococcus pyogenes; [10]): 0.06 to 1 µg/mL (≈ 0.153 to 2.55 µM)
- MIC50 (Streptococcus pyogenes; [10]): 0.5 µg/mL (≈ 1.27 µM)
- MIC90 (Streptococcus pyogenes; [10]): 1 µg/mL (≈ 2.55 µM)
- MIC (Streptococcus pyogenes; [11]): 0.25 to 1 µg/mL (≈ 0.637 to 2.55 µM)
- MIC50 (Streptococcus pyogenes; [11]): 0.25 µg/mL (≈ 0.637 µM)
- MIC90 (Streptococcus pyogenes; [11]): 0.25 µg/mL (≈ 0.637 µM)
- MIC (Streptococcus pyogenes; [12]): 0.06 to 1 µg/mL (≈ 0.153 to 2.55 µM)
- MIC50 (Streptococcus pyogenes; [12]): 0.5 µg/mL (≈ 1.27 µM)
- MIC90 (Streptococcus pyogenes; [12]): 0.5 µg/mL (≈ 1.27 µM)
- MIC (Streptococcus pyogenes; [13]): 0.25 to 1 µg/mL (≈ 0.637 to 2.55 µM)
- MIC50 (Streptococcus pyogenes; [13]): 0.5 µg/mL (≈ 1.27 µM)
- MIC90 (Streptococcus pyogenes; [13]): 0.5 µg/mL (≈ 1.27 µM)
- MIC (Streptococcus pyogenes; fully susceptible (n = 20)): 0.25 to 1 µg/mL (≈ 0.637 to 2.55 µM)
- MIC50 (Streptococcus pyogenes; fully susceptible (n = 20)): 0.5 µg/mL (≈ 1.27 µM)
- MIC90 (Streptococcus pyogenes; fully susceptible (n = 20)): 1 µg/mL (≈ 2.55 µM)
- MIC (Streptococcus pyogenes; multi-drug resistant (n = 20)): 0.25 to 1 µg/mL (≈ 0.637 to 2.55 µM)
- MIC50 (Streptococcus pyogenes; multi-drug resistant (n = 20)): 1 µg/mL (≈ 2.55 µM)
- MIC90 (Streptococcus pyogenes; multi-drug resistant (n = 20)): 1 µg/mL (≈ 2.55 µM)
- MIC (Haemophilus influenzae; [14]): 0.0075 to 0.25 µg/mL (≈ 0.0191 to 0.637 µM)
- MIC50 (Haemophilus influenzae; [14]): 0.01 µg/mL (≈ 0.0255 µM)
- MIC90 (Haemophilus influenzae; [14]): 0.03 µg/mL (≈ 0.0765 µM)
- MIC (Haemophilus influenzae; β-lactamase negative (n = 80)): 0.0075 to 0.25 µg/mL (≈ 0.0191 to 0.637 µM)
- MIC50 (Haemophilus influenzae; β-lactamase negative (n = 80)): 0.015 µg/mL (≈ 0.0382 µM)
- MIC90 (Haemophilus influenzae; β-lactamase negative (n = 80)): 0.25 µg/mL (≈ 0.637 µM)
- MIC (Haemophilus influenzae; β-lactamase positive (n = 20)): 0.0075 to 0.12 µg/mL (≈ 0.0191 to 0.306 µM)
- MIC50 (Haemophilus influenzae; β-lactamase positive (n = 20)): 0.015 µg/mL (≈ 0.0382 µM)
- MIC90 (Haemophilus influenzae; β-lactamase positive (n = 20)): 0.03 µg/mL (≈ 0.0765 µM)
- MIC Range (Enterobacter aerogenes): 0.016 to 0.25 µg/mL
- MIC50 (Enterobacter aerogenes; Klebsiella aerogenes): 0.032 µg/mL (≈ 0.0815 µM)
- MIC90 (Enterobacter aerogenes; Klebsiella aerogenes): 0.063 µg/mL (≈ 0.161 µM)
- MIC (Moraxella catarrhalis; Moraxella catarrhalis (n = 50)): 0.00375 to 0.06 µg/mL (≈ 0.00956 to 0.153 µM)
- MIC50 (Moraxella catarrhalis; Moraxella catarrhalis (n = 50)): 0.015 µg/mL (≈ 0.0382 µM)
- MIC90 (Moraxella catarrhalis; Moraxella catarrhalis (n = 50)): 0.03 µg/mL (≈ 0.0765 µM)
- MIC (Moraxella catarrhalis; β-lactamase negative (n = 13)): 0.00375 to 0.06 µg/mL (≈ 0.00956 to 0.153 µM)
- MIC50 (Moraxella catarrhalis; β-lactamase negative (n = 13)): 0.0075 µg/mL (≈ 0.0191 µM)
- MIC90 (Moraxella catarrhalis; β-lactamase negative (n = 13)): 0.06 µg/mL (≈ 0.153 µM)
- MIC (Moraxella catarrhalis; β-lactamase positive (n = 37)): 0.00375 to 0.06 µg/mL (≈ 0.00956 to 0.153 µM)
- MIC50 (Moraxella catarrhalis; β-lactamase positive (n = 37)): 0.015 µg/mL (≈ 0.0382 µM)
- MIC90 (Moraxella catarrhalis; β-lactamase positive (n = 37)): 0.03 µg/mL (≈ 0.0765 µM)
